Laboratory results published in patent US6365621B1, “Remedies or preventives for intractable epilepsy” (Pharmaceutical Co., Ltd., priority 1998, dated 2002).

Experiments:
[1] = tested on: kainate-induced amygdala seizures; assay: Local cerebral glucose metabolism during kainate-induced amygdala seizures ([14C]deoxyglucose autoradiography); format: in vivo, rat; design: key to Effect on local cerebral glucose metabolism rate: → : no change; →↓ : decreased in a low degree; ↓ : decreased in a moderate degree; ↓↓ : decreased in a high degree; conditions: for Local glucose metabolism rate: average ± standard error
Text: [Method for measuring cerebral glucose metabolism] Cannulas for injection of kainic acid were inserted in an assigned position of the left side of the amygdala of 18 Wistar male rats and fixed through the same procedure as described in Example I-1. Seven days after operation, polyethylene catheters were set and fixed to the femoral artery and vein of one side under halothane anesthesion, and the lower half of the body of each rat were put in plaster so as to prevent removal of the catheter. Upon awakening from narcotism, the same kainic acid solution as described in I-1 (1 μL) was injected through the cannula so as to induce seizures. After elapse of 90 minutes from injection of kainic acid, when limbic system seizures were in status epilepticus, 50, 100, or 200 mg/kg of nefiracetam was intravenously injected, whereas saline was injected into rats of the control group. After 60 minutes, 25 μCi of [^14C] deoxyglucose was intravenously injected. After the tracer was injected, blood was continuously collected from the artery for 45 minutes. When collection was finished, heads were cut off. Brains were extirpated immediately and instantly frozen in by hexane (−25° C.) cooled by dry ice. The frozen brain was sliced in a cryostat (−20° C.) so as to produce coronary, serial-frozen sections having a thickness of 20 μm. Subsequently, the sections were dried and put on high-speed X-ray film with a [^14C] standard, followed by seven-day-exposure in a cassette to thereby obtain an autoradiogram. The blood samples collected from the artery were centrifuged so as to collect plasma, the [^14C] radioactivity was measured by use of a liquid scintillation counter, and glucose concentration in plasma was measured.
The optical density of the intracerebral structure of each section was measured from the autoradiogram by use of a densitometer, and a glucose utilization rate of each intracerabral structure was calculated by use of the formula of Sokoloff (Sokoloff, L., Reivich, M., Kennedy, C., et al., J. Neurochemistry, 28: 897-916, 1977) based on [^14C] radioactivity and glucose concentration in plasma. The obtained data were compared quantitatively and statistically with those of the control group, through the Mann-Whitney U-test.

male mouse = conditions: peroral; cited from earlier work
[2] = Amygdala, focal side, 100 mg/kg i.v.
[3] = Amygdala, non-focal side, 100 mg/kg i.v.
[4] = Brain stem reticular formation, focal side, 100 mg/kg i.v.
[5] = Brain stem reticular formation, non-focal side, 100 mg/kg i.v.
[6] = Candatum-putamen, focal side, 100 mg/kg i.v.
[7] = Candatum-putamen, non-focal side, 100 mg/kg i.v.
[8] = Cerebellar cortex, focal side, 100 mg/kg i.v.
[9] = Cerebellar cortex, non-focal side, 100 mg/kg i.v.
[10] = Corpus callosum, focal side, 100 mg/kg i.v.
[11] = Corpus callosum, non-focal side, 100 mg/kg i.v.
[12] = Frontal lobe cortex, focal side, 100 mg/kg i.v.
[13] = Frontal lobe cortex, non-focal side, 100 mg/kg i.v.
[14] = Hypothalamaus, focal side, 100 mg/kg i.v.
[15] = Hypothalamaus, non-focal side, 100 mg/kg i.v.
[16] = Occipital lobe cortex, focal side, 100 mg/kg i.v.
[17] = Occipital lobe cortex, non-focal side, 100 mg/kg i.v.
[18] = Parietal lobe cortex, focal side, 100 mg/kg i.v.
[19] = Parietal lobe cortex, non-focal side, 100 mg/kg i.v.
[20] = Sensorimotor area cortex, focal side, 100 mg/kg i.v.
[21] = Sensorimotor area cortex, non-focal side, 100 mg/kg i.v.
[22] = Septal area, focal side, 100 mg/kg i.v.
[23] = Septal area, non-focal side, 100 mg/kg i.v.
[24] = Substantia nigra, focal side, 100 mg/kg i.v.
[25] = Substantia nigra, non-focal side, 100 mg/kg i.v.
[26] = Temporal lobe cortex, focal side, 100 mg/kg i.v.
[27] = Temporal lobe cortex, non-focal side, 100 mg/kg i.v.
[28] = Thalamus, focal side, 100 mg/kg i.v.
[29] = Thalamus, non-focal side, 100 mg/kg i.v.
[30] = hippocampus, focal side, 100 mg/kg i.v.
[31] = hippocampus, non-focal side, 100 mg/kg i.v.

## Cc1cccc(C)c1NC(=O)CN1CCCC1=O [nefiracetam, N-(2,6-dimethylphenyl)-2-(2-oxo-1-pyrrolidinyl)acetamide]
[1]; 200 mg/kg i.v.
  Regions with promoted glucose metabolism: the amygdala on the focal side is the only region where the metabolism is prompted
[1]; Amygdala, focal side, 50 mg/kg i.v.
  Effect on local cerebral glucose metabolism rate: →
[1]; [2]
  Effect on local cerebral glucose metabolism rate: →
  Local glucose metabolism rate: 201 ± 4.5 µmol/100 g/min
[1]; Amygdala, focal side, 200 mg/kg i.v.
  Effect on local cerebral glucose metabolism rate: ↓
[1]; Amygdala, non-focal side, 50 mg/kg i.v.
  Effect on local cerebral glucose metabolism rate: →
[1]; [3]
  Effect on local cerebral glucose metabolism rate: ↓↓
  Local glucose metabolism rate: 66.2 ± 3.8 µmol/100 g/min
[1]; Amygdala, non-focal side, 200 mg/kg i.v.
  Effect on local cerebral glucose metabolism rate: ↓↓
[1]; Brain stem reticular formation, focal side, 50 mg/kg i.v.
  Effect on local cerebral glucose metabolism rate: →
[1]; [4]
  Effect on local cerebral glucose metabolism rate: →↓
  Local glucose metabolism rate: 52.9 ± 3.5 µmol/100 g/min
[1]; Brain stem reticular formation, focal side, 200 mg/kg i.v.
  Effect on local cerebral glucose metabolism rate: ↓
[1]; Brain stem reticular formation, non-focal side, 50 mg/kg i.v.
  Effect on local cerebral glucose metabolism rate: →
[1]; [5]
  Effect on local cerebral glucose metabolism rate: ↓
  Local glucose metabolism rate: 49.6 ± 3.3 µmol/100 g/min
[1]; Brain stem reticular formation, non-focal side, 200 mg/kg i.v.
  Effect on local cerebral glucose metabolism rate: ↓
[1]; Candatum-putamen, focal side, 50 mg/kg i.v.
  Effect on local cerebral glucose metabolism rate: →
[1]; [6]
  Effect on local cerebral glucose metabolism rate: →
  Local glucose metabolism rate: 207 ± 16.5 µmol/100 g/min
[1]; Candatum-putamen, focal side, 200 mg/kg i.v.
  Effect on local cerebral glucose metabolism rate: ↓
[1]; Candatum-putamen, non-focal side, 50 mg/kg i.v.
  Effect on local cerebral glucose metabolism rate: →↓
[1]; [7]
  Effect on local cerebral glucose metabolism rate: ↓↓
  Local glucose metabolism rate: 73.1 ± 2.5 µmol/100 g/min
[1]; Candatum-putamen, non-focal side, 200 mg/kg i.v.
  Effect on local cerebral glucose metabolism rate: ↓↓
[1]; Cerebellar cortex, focal side, 50 mg/kg i.v.
  Effect on local cerebral glucose metabolism rate: →
[1]; [8]
  Effect on local cerebral glucose metabolism rate: →
  Local glucose metabolism rate: 47.2 ± 2.5 µmol/100 g/min
[1]; Cerebellar cortex, focal side, 200 mg/kg i.v.
  Effect on local cerebral glucose metabolism rate: →
[1]; Cerebellar cortex, non-focal side, 50 mg/kg i.v.
  Effect on local cerebral glucose metabolism rate: →
[1]; [9]
  Effect on local cerebral glucose metabolism rate: ↓
  Local glucose metabolism rate: 46.1 ± 2.1 µmol/100 g/min
[1]; Cerebellar cortex, non-focal side, 200 mg/kg i.v.
  Effect on local cerebral glucose metabolism rate: →
[1]; Corpus callosum, focal side, 50 mg/kg i.v.
  Effect on local cerebral glucose metabolism rate: →
[1]; [10]
  Effect on local cerebral glucose metabolism rate: →
  Local glucose metabolism rate: 21.9 ± 1.1 µmol/100 g/min
[1]; Corpus callosum, focal side, 200 mg/kg i.v.
  Effect on local cerebral glucose metabolism rate: →
[1]; Corpus callosum, non-focal side, 50 mg/kg i.v.
  Effect on local cerebral glucose metabolism rate: →
[1]; [11]
  Effect on local cerebral glucose metabolism rate: →
  Local glucose metabolism rate: 21.1 ± 1.1 µmol/100 g/min
[1]; Corpus callosum, non-focal side, 200 mg/kg i.v.
  Effect on local cerebral glucose metabolism rate: →
[1]; Frontal lobe cortex, focal side, 50 mg/kg i.v.
  Effect on local cerebral glucose metabolism rate: →
[1]; [12]
  Effect on local cerebral glucose metabolism rate: ↓
  Local glucose metabolism rate: 81.8 ± 5.7 µmol/100 g/min
[1]; Frontal lobe cortex, focal side, 200 mg/kg i.v.
  Effect on local cerebral glucose metabolism rate: ↓
[1]; Frontal lobe cortex, non-focal side, 50 mg/kg i.v.
  Effect on local cerebral glucose metabolism rate: →
[1]; [13]
  Effect on local cerebral glucose metabolism rate: ↓
  Local glucose metabolism rate: 65.7 ± 3.6 µmol/100 g/min
[1]; Frontal lobe cortex, non-focal side, 200 mg/kg i.v.
  Effect on local cerebral glucose metabolism rate: ↓
[1]; Hypothalamaus, focal side, 50 mg/kg i.v.
  Effect on local cerebral glucose metabolism rate: →
[1]; [14]
  Effect on local cerebral glucose metabolism rate: ↓
  Local glucose metabolism rate: 70.6 ± 4.7 µmol/100 g/min
[1]; Hypothalamaus, focal side, 200 mg/kg i.v.
  Effect on local cerebral glucose metabolism rate: ↓
[1]; Hypothalamaus, non-focal side, 50 mg/kg i.v.
  Effect on local cerebral glucose metabolism rate: →
[1]; [15]
  Effect on local cerebral glucose metabolism rate: →↓
  Local glucose metabolism rate: 58.5 ± 4.5 µmol/100 g/min
[1]; Hypothalamaus, non-focal side, 200 mg/kg i.v.
  Effect on local cerebral glucose metabolism rate: ↓
[1]; Occipital lobe cortex, focal side, 50 mg/kg i.v.
  Effect on local cerebral glucose metabolism rate: →
[1]; [16]
  Effect on local cerebral glucose metabolism rate: →↓
  Local glucose metabolism rate: 139 ± 5.6 µmol/100 g/min
[1]; Occipital lobe cortex, focal side, 200 mg/kg i.v.
  Effect on local cerebral glucose metabolism rate: ↓
[1]; Occipital lobe cortex, non-focal side, 50 mg/kg i.v.
  Effect on local cerebral glucose metabolism rate: →
[1]; [17]
  Effect on local cerebral glucose metabolism rate: →↓
  Local glucose metabolism rate: 78.6 ± 5.8 µmol/100 g/min
[1]; Occipital lobe cortex, non-focal side, 200 mg/kg i.v.
  Effect on local cerebral glucose metabolism rate: ↓
[1]; Parietal lobe cortex, focal side, 50 mg/kg i.v.
  Effect on local cerebral glucose metabolism rate: →
[1]; [18]
  Effect on local cerebral glucose metabolism rate: →↓
  Local glucose metabolism rate: 109 ± 10.6 µmol/100 g/min
[1]; Parietal lobe cortex, focal side, 200 mg/kg i.v.
  Effect on local cerebral glucose metabolism rate: ↓
[1]; Parietal lobe cortex, non-focal side, 50 mg/kg i.v.
  Effect on local cerebral glucose metabolism rate: →
[1]; [19]
  Effect on local cerebral glucose metabolism rate: →↓
  Local glucose metabolism rate: 72.1 ± 4.9 µmol/100 g/min
[1]; Parietal lobe cortex, non-focal side, 200 mg/kg i.v.
  Effect on local cerebral glucose metabolism rate: ↓
[1]; Sensorimotor area cortex, focal side, 50 mg/kg i.v.
  Effect on local cerebral glucose metabolism rate: →
[1]; [20]
  Effect on local cerebral glucose metabolism rate: →
  Local glucose metabolism rate: 139 ± 9 µmol/100 g/min
[1]; Sensorimotor area cortex, focal side, 200 mg/kg i.v.
  Effect on local cerebral glucose metabolism rate: ↓
[1]; Sensorimotor area cortex, non-focal side, 50 mg/kg i.v.
  Effect on local cerebral glucose metabolism rate: →
[1]; [21]
  Effect on local cerebral glucose metabolism rate: ↓
  Local glucose metabolism rate: 73.4 ± 4.7 µmol/100 g/min
[1]; Sensorimotor area cortex, non-focal side, 200 mg/kg i.v.
  Effect on local cerebral glucose metabolism rate: ↓
[1]; Septal area, focal side, 50 mg/kg i.v.
  Effect on local cerebral glucose metabolism rate: →
[1]; [22]
  Effect on local cerebral glucose metabolism rate: ↓
  Local glucose metabolism rate: 117 ± 22.7 µmol/100 g/min
[1]; Septal area, focal side, 200 mg/kg i.v.
  Effect on local cerebral glucose metabolism rate: ↓↓
[1]; Septal area, non-focal side, 50 mg/kg i.v.
  Effect on local cerebral glucose metabolism rate: →
[1]; [23]
  Effect on local cerebral glucose metabolism rate: ↓↓
  Local glucose metabolism rate: 56.9 ± 3.3 µmol/100 g/min
[1]; Septal area, non-focal side, 200 mg/kg i.v.
  Effect on local cerebral glucose metabolism rate: ↓↓
[1]; Substantia nigra, focal side, 50 mg/kg i.v.
  Effect on local cerebral glucose metabolism rate: →
[1]; [24]
  Effect on local cerebral glucose metabolism rate: ↓
  Local glucose metabolism rate: 77.6 ± 6.8 µmol/100 g/min
[1]; Substantia nigra, focal side, 200 mg/kg i.v.
  Effect on local cerebral glucose metabolism rate: ↓
[1]; Substantia nigra, non-focal side, 50 mg/kg i.v.
  Effect on local cerebral glucose metabolism rate: →
[1]; [25]
  Effect on local cerebral glucose metabolism rate: ↓
  Local glucose metabolism rate: 45.9 ± 2.7 µmol/100 g/min
[1]; Substantia nigra, non-focal side, 200 mg/kg i.v.
  Effect on local cerebral glucose metabolism rate: ↓
[1]; Temporal lobe cortex, focal side, 50 mg/kg i.v.
  Effect on local cerebral glucose metabolism rate: →
[1]; [26]
  Effect on local cerebral glucose metabolism rate: →↓
  Local glucose metabolism rate: 103 ± 6.2 µmol/100 g/min
[1]; Temporal lobe cortex, focal side, 200 mg/kg i.v.
  Effect on local cerebral glucose metabolism rate: ↓
[1]; Temporal lobe cortex, non-focal side, 50 mg/kg i.v.
  Effect on local cerebral glucose metabolism rate: →
[1]; [27]
  Effect on local cerebral glucose metabolism rate: ↓
  Local glucose metabolism rate: 67.8 ± 3.5 µmol/100 g/min
[1]; Temporal lobe cortex, non-focal side, 200 mg/kg i.v.
  Effect on local cerebral glucose metabolism rate: ↓
[1]; Thalamus, focal side, 50 mg/kg i.v.
  Effect on local cerebral glucose metabolism rate: →
[1]; [28]
  Effect on local cerebral glucose metabolism rate: ↓
  Local glucose metabolism rate: 90.5 ± 3.8 µmol/100 g/min
[1]; Thalamus, focal side, 200 mg/kg i.v.
  Effect on local cerebral glucose metabolism rate: ↓↓
[1]; Thalamus, non-focal side, 50 mg/kg i.v.
  Effect on local cerebral glucose metabolism rate: ↓
[1]; [29]
  Effect on local cerebral glucose metabolism rate: ↓↓
  Local glucose metabolism rate: 72.3 ± 2.8 µmol/100 g/min
[1]; Thalamus, non-focal side, 200 mg/kg i.v.
  Effect on local cerebral glucose metabolism rate: ↓↓
[1]; hippocampus, focal side, 50 mg/kg i.v.
  Effect on local cerebral glucose metabolism rate: →↓
[1]; [30]
  Effect on local cerebral glucose metabolism rate: ↓
  Local glucose metabolism rate: 184 ± 7.1 µmol/100 g/min
[1]; hippocampus, focal side, 200 mg/kg i.v.
  Effect on local cerebral glucose metabolism rate: ↓↓
[1]; hippocampus, non-focal side, 50 mg/kg i.v.
  Effect on local cerebral glucose metabolism rate: ↓
[1]; [31]
  Effect on local cerebral glucose metabolism rate: ↓↓
  Local glucose metabolism rate: 87.2 ± 8.9 µmol/100 g/min
[1]; hippocampus, non-focal side, 200 mg/kg i.v.
  Effect on local cerebral glucose metabolism rate: ↓↓
Male mouse
  acute toxicity: 2,005 mg/kg
